Reference: ChEMBL document CHEMBL1157255, “Flavan-4-ol Glycosides from the Rhizomes of Abacopteris penangiana” (J Nat Prod, 2006)
Values after ≈ are worked out from the molar mass of the structure shown.

System: HepG2
Assay: Cytotoxicity against human HepG2 cells by MTT assay
Format: functional, cell-based

SMILES | IC50
O=c1[nH]cc(F)c(=O)[nH]1 [FLUOROURACIL] | 1.3 µg/mL (≈ 9.99 µM)
COc1ccc([C@@H]2C[C@@H]3O[C@H]4[C@H](Oc5c(C)c(O)c(C)c(c53)O2)O[C@H](CO)[C@@H](O)[C@@H]4OC(C)=O)cc1 | 4.1 µg/mL (≈ 8.16 µM)
COc1ccc([C@@H]2C[C@@H](O)c3c(c(C)c4c(c3O[C@@H]3O[C@H](CO)[C@@H](O)[C@H](O)[C@H]3O)CO[C@H]3[C@H](O4)O[C@H](CO)[C@@H](O)[C@@H]3O)O2)cc1 | 3.1 µg/mL (≈ 4.85 µM)
COc1ccc([C@@H]2C[C@@H](O)c3c(c(C)c(O[C@@H]4O[C@H](CO)[C@@H](O)[C@H](O)[C@H]4O)c(CO)c3O[C@@H]3O[C@H](CO)[C@@H](O)[C@H](O)[C@H]3O)O2)cc1 [TRIPHYLLIN A] | 5.7 µg/mL (≈ 8.68 µM)
COc1ccc([C@@H]2C[C@@H]3O[C@H]4[C@H](Oc5c(C)c(O)c(C)c(c53)O2)O[C@H](COC(C)=O)[C@@H](O)[C@@H]4O)cc1 | 3.5 µg/mL (≈ 6.96 µM)
COc1ccc([C@@H]2C[C@@H]3O[C@H]4[C@H](Oc5c(C)c(O)c(C)c(c53)O2)O[C@H](CO)[C@@H](O)[C@@H]4O)cc1 [ABACOPTERIN C] | 4 µg/mL (≈ 8.69 µM)
